According to ChEMBL document CHEMBL4480449, “Conolodinines A-D, Aspidosperma- Aspidosperma Bisindole Alkaloids with Antiproliferative Activity from Tabernaemontana corymbosa” (J Nat Prod, 2019):

Experiments:
[1] = Cytotoxicity against human KB/S cells after 72 hrs by MTT assay; type: functional, cell-based
[2] = test system: KB/VJ300; assay: Cytotoxicity against human KB/VJ300 cells after 72 hrs by MTT assay; type: functional, cell-based
[3] = test system: KB/VJ300; assay: Cytotoxicity against human KB/VJ300 cells after 72 hrs in presence of vincristine by MTT assay; type: functional, cell-based; also: test concentration or dose not given here
[4] = test system: PC-3; assay: Cytotoxicity against human PC3 cells after 72 hrs by MTT assay; type: functional, cell-based
[5] = test system: LNCaP; assay: Cytotoxicity against human LNCAP cells after 72 hrs by MTT assay; type: functional, cell-based
[6] = test system: MCF7; assay: Cytotoxicity against human MCF7 cells after 72 hrs by MTT assay; type: functional, cell-based
[7] = test system: MDA-MB-231; assay: Cytotoxicity against human MDA-MB-231 cells after 72 hrs by MTT assay; type: functional, cell-based
[8] = test system: HT-29; assay: Cytotoxicity against human HT-29 cells after 72 hrs by MTT assay; type: functional, cell-based
[9] = test system: MRC5; assay: Cytotoxicity against human MRC5 cells after 72 hrs by MTT assay; type: cell-based
[10] = test system: A549; assay: Cytotoxicity against human A549 cells after 72 hrs by MTT assay; type: functional, cell-based; conditions: A549, 72 h
[11] = test system: HCT-116; assay: Cytotoxicity against human HCT116 cells after 72 hrs by MTT assay; type: functional, cell-based; conditions: HCT-116, 72 h

Compound	IC50 [1] [nM]	IC50 ([2]; kb/vj300) [nM]	IC50 ([3]; kb/vj300) [nM]	IC50 ([4]; pc-3) [nM]	IC50 ([5]; lncap) [nM]	IC50 ([6]; mcf7) [nM]	IC50 ([7]; mda-mb-231) [nM]	IC50 ([8]; ht-29) [nM]	IC50 ([9]; mrc5) [nM]	IC50 ([2]; Homo sapiens, KB/VJ300, 72 h) [nM]	IC50 ([3]; Homo sapiens, KB/VJ300, 72 h) [nM]	IC50 ([4]; Homo sapiens, PC-3, 72 h) [nM]	IC50 ([5]; Homo sapiens, LNCaP, 72 h) [nM]	IC50 ([6]; Homo sapiens, MCF7, 72 h) [nM]	IC50 ([7]; Homo sapiens, MDA-MB-231, 72 h) [nM]	IC50 [10] [nM]	IC50 [11] [nM]	IC50 ([8]; Homo sapiens, HT-29, 72 h) [nM]	IC50 ([1]; Homo sapiens, 72 h) [nM]	IC50 ([9]; Homo sapiens, MRC5, 72 h) [nM]
CC[C@@]12CC(C(=O)OC)=C3N=C4C(=CC(=O)C(O)=C4OC)[C@@]34CCN([C@@H]3c5cc6c(cc5O[C@@H]3[C@H]1O)NC1=C(C(=O)OC)C[C@]3(CC)[C@@H]5O[C@@H]5CN5CC[C@@]16[C@@H]53)[C@H]42 (stereo in doubt; 8)	10	2900	4200	500	1000	700	800	1000	4000											
CC[C@@]12CC(C(=O)OC)=C3N=C4C(=CC(=O)C(O)=C4OC)[C@@]34CCN([C@@H]3c5cc6c(cc5O[C@@H]3[C@H]1O)NC1=C(C(=O)OC)C[C@]3(CC)[C@@H]5O[C@@H]5CN5CC[C@@]16[C@@H]53)[C@H]42 (stereo in doubt; 7)	30								1500	4200	3000	600	1600	800	1300	> 10000	500	800		
CC[C@@]12CC(C(=O)OC)=C3N=C4C(=CC(=O)C(OC)=C4OC)[C@@]34CCN([C@@H]3c5cc6c(cc5O[C@@H]3[C@H]1O)NC1=C(C(=O)OC)C[C@]3(CC)[C@@H]5O[C@@H]5CN5CC[C@@]16[C@@H]53)[C@H]42										8600	1500	700	> 10000	300	400	> 10000	200	200	100	
CC[C@@]12CC[C@@H]3N(C)c4ccc([C@@H]5[C@H]6O[C@H]6[C@@]6(CC)CC(C(=O)OC)=C7Nc8c(cc(O)c(OC)c8OC)[C@@]78CCN5[C@@H]68)cc4[C@@]34CCN(C[C@H]3O[C@H]31)[C@@H]24 [CONOFOLINE]										> 10000		2300	> 10000	> 10000	9900	8200	6600	8500	> 10000	
CC[C@@]12CC(C(=O)OC)=C3N=C4C(=CC(=O)C(OC)=C4OC)[C@@]34CCN([C@H](c3ccc5c(c3)[C@@]36CCN7C[C@H]8O[C@H]8[C@@](CC)(CC[C@@H]3N5C)[C@H]76)[C@H]3O[C@H]31)[C@H]42										2700	4400	4300	3300	8400	6000	> 10000	2400	3400	1100	> 10000
CC[C@@]12CC(C(=O)OC)=C3Nc4c(cc(O)c(OC)c4OC)[C@@]34CCN([C@@H]3c5cc6c(cc5O[C@@H]3[C@H]1O)NC1=C(C(=O)OC)C[C@]35CCO[C@H]3CCN3CC[C@@]16[C@@H]35)[C@@H]24											1400					> 10000			500	6200
CC[C@]1(O)C[C@H]2CN(CCc3c([nH]c4ccccc34)[C@@](C(=O)OC)(c3cc4c(cc3OC)N(C=O)[C@H]3[C@@](O)(C(=O)OC)[C@H](OC(C)=O)[C@]5(CC)C=CCN6CC[C@]43[C@@H]65)C2)C1 [VINCRISTINE]										2600									0.4	
CC[C@@]12C=C(C(=O)OC)C3=Nc4c(cc(O)c(OC)c4OC)[C@@]34CCN([C@@H]3c5cc6c(cc5O[C@@H]3[C@H]1O)NC1=C(C(=O)OC)C[C@]3(CC)[C@@H]5O[C@@H]5CN5CC[C@@]16[C@@H]53)[C@@H]24										> 10000	4100	4700	> 10000	4800	3600	> 10000	4300	2200	1100	
CC[C@@]12CC(C(=O)OC)=C3Nc4cc5c(cc4[C@@]34CCN(C[C@H](O)[C@H]1O)[C@@H]24)[C@@H]1[C@H](O5)[C@@H](O)[C@@]2(CC)CC(C(=O)OC)=C3Nc4c(cc(O)c(OC)c4OC)[C@@]34CCN1[C@@H]24										> 10000	> 10000	2500	300	1200	> 10000	> 10000	2100	1700	700	
COc1ccc(CCN(C)CCCC(C#N)(c2ccc(OC)c(OC)c2)C(C)C)cc1OC (stereo unspecified) [VERAPAMIL]											800									
CC[C@]12C=CCN3CC[C@]4(C(=C(C(=O)OC)C1)Nc1cc5c(cc14)[C@@H]1[C@H](O5)[C@@H](O)[C@@]4(CC)CC(C(=O)OC)=C5Nc6c(cc(O)c(OC)c6OC)[C@@]56CCN1[C@@H]46)[C@@H]32										> 10000									1500	
CC[C@@]12CC(C(=O)OC)=C3Nc4cc5c(cc4[C@@]34CCN(C[C@H]3O[C@H]31)[C@@H]24)[C@@H]1[C@H](O5)[C@@H](O)[C@@]2(CC)CC(C(=O)OC)=C3Nc4c(ccc(OC)c4O)[C@@]34CCN1[C@@H]24										> 10000	1300	7900	9600	600	1400	> 10000	1100	300	100	
CC[C@]12C=CCN3CC[C@]4(C(=C(C(=O)OC)C1)Nc1cc5c(cc14)[C@@H]1[C@H](O5)[C@@H](O)[C@@]4(CC)CC(C(=O)OC)=C5N=C6C(=CC(=O)C(OC)=C6OC)[C@@]56CCN1[C@H]64)[C@@H]32										4600	4300	300	2800	800	500	> 10000	100	400	30	5600
CC[C@@]12CC(C(=O)OC)=C3N=C4C(=CC(=O)C(OC)=C4OC)[C@@]34CCN([C@@H]3c5cc6c(cc5O[C@@H]3[C@H]1O)NC1=C(C(=O)OC)C[C@]3(CC)[C@H](O)[C@@H](O)CN5CC[C@@]16[C@@H]53)[C@H]42										> 10000	> 10000	> 10000	2600	3500	5400	> 10000	3100	2300	200	> 10000
CC[C@@]12CC(C(=O)OC)=C3Nc4cc5c(cc4[C@@]34CCN(C[C@H]3O[C@H]31)[C@@H]24)[C@@H]1[C@H](O5)[C@@H](O)[C@@]2(CC)CC(C(=O)OC)=C3Nc4c(cc(O)c(OC)c4OC)[C@@]34CCN1[C@@H]24 [CONOPHYLLINE]										> 10000	4900	300	> 10000	2100	1600	3200	800	3000	30	
